Like-named read-outs stand apart in the source and are kept apart here.
Test system: Dd2 strain of P. falciparum
Experiment: Activity against the Dd2 strain of P. falciparum (SYBR Green I, 72-h incubation)
Format: cell-based
Conditions: read-out: EC^50 Dd2
Protocol: The Dd2 strain of P. falciparum was cultured in complete medium (RPMI with L-glutamine, 4.3% heat-inactivated O-positive human serum, 2.08 mg/ml albumax, 0.013 mg/ml hypoxanthine, 1.17 mg/ml glucose, 0.18% NaHCO3, 0.031 M Hepes, 2.60 mM NaOH, and 0.043 mg/ml gentamicin) until the parasitemia reached 3-8%. Parasitemia was determined by checking at least 500 red blood cells from a Giemsa-stained blood smear. The Dd2 cultures along with tested O-positive red blood cells are centrifuged at room temperature at 2,000 rpm for 5 min using an Eppendorf centrifuge 581 OR with an A-4-81 rotor. The medium was aspirated off. For the compound screening, a parasite dilution at a 1% parasitemia and 1.0% hematocrit was created with screening medium (RPMI with L-glutamine, 4.16 mg/ml albumax II, 0.013 mg/ml hypoxanthine, 1.73 mg/ml glucose, 0.18% NaHCO3, 0.031M Hepes, 2.60 mM NaOH, and 0.043 mg/ml gentamicin). The suspension was gassed with 93% nitrogen, 4% carbon dioxide, and 3% oxygen and placed at 37° C. until needed. Using a liquid dispenser, 20 μl of screening medium was dispensed into 384-well, black, clear-bottom plates. With a PinTool, 100 nl of compounds dissolved in DMSO was transferred into the assay plates along with control compound (mefloquine). Next, 30 μl of the parasite suspension in screening medium was then dispensed into the assay plates such that the final parasitemia was 1%, and the final hematocrit was 1.0%. Final concentration of DMSO was 0.125%. Mefloquine at a final concentration of 20 μM and DMSO at a final concentration of 0.125% were used within the assay plates to serve as background and baseline controls, respectively. The assay plates were transferred to incubators (93% nitrogen, 4% carbon dioxide, and 3% oxygen during the 72-h incubation at 37° C.). Ten microliters of detection reagent consisting of 1 OX SYBR Green I (Invitrogen; supplied in 10,000× concentration) in lysis buffer (20 mM Tris-HCl, 5 mM EDTA, 0.16% Saponin wt/vol, 1.6% Triton X vol/vol) was dispensed into the assay plates. For optimal staining, the assay plates were left at room temperature for 24 h in the dark. The assay plates were read by using an Envision (PerkinElmer) reader, with 505 dichroic mirrors with 485-nm excitation and 530-nm emission settings, and the plate reads were from the bottom.

[1] = Plasmodium falciparum, DD2, 72 h

Row | SMILES | EC50 [1] | EC50
1 | COc1ccc2c3c([nH]c2c1)C(CO)N(C(=O)Nc1ccc(F)cc1)CC31CCN(Cc2cc(-c3ccccc3)on2)CC1 (stereo in doubt) [Compound 111, (R)-N-(4-fluorophenyl)-1′-(hydroxymethyl)-7′-methoxy-1-((5-phenylisoxazol-3-yl)methyl)-3′,9′-dihydrospiro [piperidine-4,4′-pyrido[3,4-b]indole]-2′(1′H)-carboxamide] | 451 nM | 
2 | COc1ccc2c3c([nH]c2c1)[C@H](CO)N(C(C)=O)CC31CCNCC1 [Compound 4, (R)-1-(1′-(hydroxymethyl)-7′-methoxyspiro [piperidine-4,4′-pyrido[3,4-b]indol]-2′(1′H,3′H,9′H)-yl)ethanone] | 10700 nM | 
3 | COc1ccc2c3c(n(C)c2c1)[C@H](CO)N(C(C)=O)CC31CCN(C(=O)Nc2ccccc2F)CC1 [Compound 5, (R)-2′-acetyl-N-(2-fluorophenyl)-1′-(hydroxymethyl)-7′-methoxy-9′-methyl-1′,2′,3′,9′-tetrahydrospiro [piperidine-4,4′-pyrido[3,4-b]indole]-1-carboxamide] | 6480 nM | 
4 | COc1ccc2c3c([nH]c2c1)[C@H](CO[Si](C)(C)C(C)(C)C)N(C(C)=O)CC31CCN(C(=O)Nc2cccnc2)CC1 [Compound 7] | 1380 nM | 
5 | COc1ccc2c3c([nH]c2c1)[C@H](CO)N(C(C)=O)CC31CCN(C(=O)Nc2ccc(F)cc2)CC1 [Compound 8, (R)-2′-acetyl-N-(4-fluorophenyl)-1′-(hydroxymethyl)-7′ -methoxy-1′,2′,3′,9′-tetrahydrospiro[piperidine-4,4′-pyrido[3,4-b]indole]-1-carboxamide] | 1770 nM | 
6 | COc1ccc2c3c([nH]c2c1)[C@H](CO)N(C(=O)C(C)C)CC31CCN(C(=O)Nc2ccccc2F)CC1 [Compound 9] | 2910 nM | 
7 | COc1ccc2c3c([nH]c2c1)[C@H](CO)N(C(C)=O)CC31CCN(C(=O)Nc2ccc(Cl)cc2)CC1 [Compound 10] | 3380 nM | 
8 | COc1ccc2c3c([nH]c2c1)C(C)(C)NCC31CCN(C(=O)OC(C)(C)C)CC1 [Compound 11] | 4430 nM | 
9 | COc1ccc2c3c([nH]c2c1)[C@H](CO)N(C(=O)Cc1ccccc1)CC31CCN(C(=O)Nc2ccccc2F)CC1 [Compound 12] |  | 246 to 291 nM

The next lines start with the values.

Row | EC50 [1] | EC50 | SMILES
10 | 214 to 345 nM |  | COc1ccc2c3c([nH]c2c1)[C@H](CO)N(C(C)=O)CC31CCN(C(=O)Nc2ccccc2Cl)CC1 [Compound 1, (R)-2′-acetyl-N-(2-chlorophenyl)-1′-(hydroxymethyl)-7′ -methoxy-1′,2′,3′,9′-tetrahydrospiro [piperidine-4,4′-pyrido [3,4-b]indole]-1-carboxamide]
11 | 120 to 303 nM |  | COc1ccc2c3c([nH]c2c1)C(C)(C)N(C(C)=O)CC31CCN(C(=O)Nc2ccccc2F)CC1 [Compound 2, 2′-acetyl-N-(2-fluorophenyl)-7′ -methoxy-1′,1′-dimethyl-1′,2′,3′,9′-tetrahydrospiro [piperidine-4,4′-pyrido[3,4-b]indole]-1-carboxamide]
12 | 1610 nM |  | COc1ccc2c3c([nH]c2c1)[C@H](CO)N(C(=O)C(F)(F)F)CC31CCN(C(=O)Nc2ccccc2F)CC1 [Compound 3, (R)-N-(2-fluorophenyl)-1′-(hydroxymethyl)-7′-methoxy-2′-(2,2,2-trifluoroacetyl)-1′,2′,3′,9′-tetrahydrospiro[piperidine-4,4′-pyrido[3,4-b]indole]-1-carboxamide]
13 | 183 to 319 nM |  | CNC[C@H]1c2[nH]c3cc(OC)ccc3c2C2(CCN(C(=O)Nc3ccccc3F)CC2)CN1C(C)=O [Compound 6, (S)-2′-acetyl-N-(2-fluorophenyl)-7′-methoxy-1′-((methylamino)methyl)-1′,2′,3′,9′-tetrahydrospiro[piperidine-4,4′-pyrido[3,4-b]indole]-1-carboxamide]
14 | 127 to 162 nM |  | COc1ccc2c3c([nH]c2c1)[C@H](CO)N(C(C)=O)CC31CCN(C(=O)Nc2cccc(Cl)c2)CC1 [Compound 13, (R)-2′-acetyl-N-(3-chlorophenyl)-1′-(hydroxymethyl)-7′-methoxy-1′,2′,3′,9′-tetrahydrospiro [piperidine-4,4′-pyrido[3,4-b]indole]-1-carboxamide]
